# Experiments:
# Format in all cases: in vivo
# Sunflower [1] = assay: Test C preemergence; details: Rate 250 g/ha, scale 0 to 100, 0 no effect, 100 complete control
# Sunflower [2] = assay: Test C preemergence; details: Rate 500 g/ha, visual evaluation after 12 to 14 days
# [3] = tested on: cocklebur (Xanthium strumarium); assay: Test B postemergence
# Method in brief: (§1)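 Ratings on a 0 to 100 visual scale (100 complete control) compare treated plants with controls 13 to 15 days after application. Treatments were pre- or postemergence sprays of compound in non-phytotoxic solvent with surfactant.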
# [4] = tested on: pigweed (Amaranthus retroflexus); assay: Test B postemergence; details: Rate 125 g/ha, scale 0 to 100, 0 no effect, 100 complete control
# Method in brief: as §1
# [5] = tested on: crabgrass (Digitaria sanguinalis); assay: Test B postemergence; details: Rate 125 g/ha, scale 0 to 100, 0 no effect, 100 complete control
# Method in brief: as §1
# [6] = tested on: morning glory (Ipomoea hederacea); assay: Test B postemergence; details: Rate 125 g/ha, scale 0 to 100, 0 no effect, 100 complete control
# Method in brief: as §1
# corn (Zea mays) = assay: Test B postemergence
# Method in brief: as §1
# [7] = tested on: lambsquarters (Chenopodium album); assay: Test B postemergence; details: Rate 125 g/ha, scale 0 to 100, 0 no effect, 100 complete control
# Method in brief: as §1
# wild oat (Avena fatua) = assay: Test B postemergence; details: Rate 125 g/ha, scale 0 to 100, 0 no effect, 100 complete control
# Method in brief: as §1
# [8] = tested on: blackgrass (Alopecurus myosuroides); assay: Test B postemergence
# Method in brief: as §1
# [9] = tested on: wheat (Triticum aestivum); assay: Test B postemergence; details: Rate 125 g/ha, scale 0 to 100, 0 no effect, 100 complete control
# Method in brief: as §1
# [10] = tested on: velvetleaf (Abutilon theophrasti); assay: Test B postemergence; details: Rate 125 g/ha, scale 0 to 100, 0 no effect, 100 complete control
# Method in brief: as §1
# [11] = tested on: barnyardgrass (Echinochloa crus-galli); assay: Test B postemergence
# Method in brief: as §1
# [12] = tested on: giant foxtail (Setaria faberii); assay: Test B postemergence; details: Rate 125 g/ha, scale 0 to 100, 0 no effect, 100 complete control
# Method in brief: as §1
# [13] = tested on: Surinam grass (Brachiaria decumbens); assay: Test B postemergence
# Method in brief: as §1
# kochia (Kochia scoparia) = assay: Test C preemergence; details: for Plant response rating (0 to 100), Kochia: Rate 500 g/ha, visual evaluation after 12 to 14 days
# Method in brief: (§2)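 Plants held in greenhouse for 12–14 days post-application are scored by eye against controls on a 0–100 control scale. Application timing: preemergence on sown seed, or postemergence on 2–18 cm plants.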
# [14] = tested on: cocklebur (Xanthium strumarium); assay: Test C preemergence; details: for Plant response rating (0 to 100), Cocklebur: Rate 500 g/ha, visual evaluation after 12 to 14 days
# Method in brief: as §2
# [15] = tested on: crabgrass (Digitaria sanguinalis); assay: Test C preemergence; details: for Plant response rating (0 to 100), Crabgrass: Rate 500 g/ha, visual evaluation after 12 to 14 days
# Method in brief: as §2
# [16] = tested on: goosegrass (Eleusine indica); assay: Test C preemergence; details: for Plant response rating (0 to 100), Goosegrass: Rate 500 g/ha, visual evaluation after 12 to 14 days
# Method in brief: as §2
# Sunflower [17] = assay: Test C preemergence; details: Rate 125 g/ha; scale 0 to 100, 0 no effect, 100 complete control
# soybean (Glycine max) = assay: Test C preemergence; details: for Plant response rating (0 to 100), Soybean: Rate 500 g/ha, visual evaluation after 12 to 14 days
# Method in brief: as §2
# [18] = tested on: bermudagrass (Cynodon dactylon); assay: Test C preemergence; details: for Plant response rating (0 to 100 where 0 is no effect and 100 is complete control), Bermudagrass: Rate 500 g/ha, visual evaluation after 12 to 14 days
# Method in brief: as §2
# [19] = tested on: velvetleaf (Abutilon theophrasti); assay: Test C preemergence; details: for Plant response rating (0 to 100), Velvetleaf: Rate 500 g/ha, visual evaluation after 12 to 14 days
# Method in brief: as §2
# [20] = Rate 125 g/ha, scale 0 to 100, 0 no effect, 100 complete control
# [21] = Rate 500 g/ha, scale 0 to 100, 0 is no effect, 100 is complete control, 13 to 15 days
# [22] = preemergence, Rate 62 g/ha, scale 0 to 100
# [23] = preemergence, Rate 250 g/ha, scale 0 to 100, 0 no effect, 100 complete control
smiles,measurement,setting,value
CCC(CC)c1ccn(C2CCN(c3ccc(Cl)c(OC)c3)C2=O)n1 (stereo not drawn) [Compound 118],"Plant response rating, Sunflower",Sunflower [1],60
same,"Plant response rating (0 to 100), Sunflower",Sunflower [2],70
same,"Plant response rating, Cocklebur",[3]; [20],60
same,"Plant response rating, Cocklebur",[3]; [21],100
same,"Plant response rating, Pigweed",[4],70
same,"Plant response rating, Crabgrass",[5],40
same,"Plant response rating, Morningglory",[6],40
same,"Plant response rating, Corn",corn (Zea mays); [20],20
same,"Plant response rating, Corn",corn (Zea mays); [21],20
same,"Plant response rating, Lambsquarters",[7],90
same,"Plant response rating, Wild Oat",wild oat (Avena fatua),30
same,"Plant response rating, Blackgrass",[8]; [20],0
same,"Plant response rating, Blackgrass",[8]; [21],0
same,"Plant response rating, Wheat",[9],20
same,"Plant response rating, Velvetleaf",[10],40
same,"Plant response rating, Barnyardgrass",[11]; [20],0
same,"Plant response rating, Barnyardgrass",[11]; [21],90
same,"Plant response rating, Foxtail, Giant",[12],0
same,"Plant response rating, Surinam grass",[13]; [20],30
same,"Plant response rating, Surinam grass",[13]; [21],40
same,"Plant response rating, Kochia",kochia (Kochia scoparia); [20],100
same,"Plant response rating, Kochia",kochia (Kochia scoparia); [22],80
same,"Plant response rating (0 to 100), Kochia",kochia (Kochia scoparia); preemergence,100
same,"Plant response rating, Kochia",kochia (Kochia scoparia); [23],100
same,"Plant response rating, Cocklebur",[14]; [20],0
same,"Plant response rating, Cocklebur",[14]; [22],0
same,"Plant response rating (0 to 100), Cocklebur",[14]; preemergence,0
same,"Plant response rating, Cocklebur",[14]; [23],0
same,"Plant response rating, Crabgrass",[15]; [20],100
same,"Plant response rating, Crabgrass",[15]; [22],100
same,"Plant response rating (0 to 100), Crabgrass",[15]; preemergence,100
same,"Plant response rating, Crabgrass",[15]; [23],100
same,"Plant response rating, Goosegrass",[16]; [20],100
same,"Plant response rating, Goosegrass",[16]; [22],100
same,"Plant response rating (0 to 100), Goosegrass",[16]; preemergence,100
same,"Plant response rating, Goosegrass",[16]; [23],100
same,"Plant response rating, Sunflower",Sunflower [17],50
same,"Plant response rating, Soybean",soybean (Glycine max); [20],60
same,"Plant response rating, Soybean",soybean (Glycine max); [22],40
same,"Plant response rating (0 to 100), Soybean",soybean (Glycine max); preemergence,90
same,"Plant response rating, Soybean",soybean (Glycine max); [23],65
same,"Plant response rating, Bermudagrass",[18]; [20],100
same,"Plant response rating, Bermudagrass",[18]; [22],100
same,"Plant response rating (0 to 100 where 0 is no effect and 100 is complete control), Bermudagrass",[18]; preemergence,100
same,"Plant response rating, Bermudagrass",[18]; [23],100
same,"Plant response rating, Velvetleaf",[19]; [20],100
same,"Plant response rating, Velvetleaf",[19]; [22],20
same,"Plant response rating (0 to 100), Velvetleaf",[19]; preemergence,100
same,"Plant response rating, Velvetleaf",[19]; [23],100
CCC(C)c1ccn(C2CCN(c3ccc(Cl)c(OC)c3)C2=O)n1 (stereo not drawn) [Compound 119],"Plant response rating, Sunflower",Sunflower [1],40
same,"Plant response rating (0 to 100), Sunflower",Sunflower [2],100
same,"Plant response rating, Cocklebur",[3]; [20],90
same,"Plant response rating, Cocklebur",[3]; [21],100
same,"Plant response rating, Pigweed",[4],60
same,"Plant response rating, Crabgrass",[5],40
same,"Plant response rating, Morningglory",[6],30
same,"Plant response rating, Corn",corn (Zea mays); [20],0
same,"Plant response rating, Corn",corn (Zea mays); [21],0
same,"Plant response rating, Lambsquarters",[7],90
same,"Plant response rating, Wild Oat",wild oat (Avena fatua),0
same,"Plant response rating, Blackgrass",[8]; [20],0
same,"Plant response rating, Blackgrass",[8]; [21],0
same,"Plant response rating, Wheat",[9],20
same,"Plant response rating, Velvetleaf",[10],30
same,"Plant response rating, Barnyardgrass",[11]; [20],30
same,"Plant response rating, Barnyardgrass",[11]; [21],100
same,"Plant response rating, Foxtail, Giant",[12],0
same,"Plant response rating, Surinam grass",[13]; [20],20
same,"Plant response rating, Surinam grass",[13]; [21],50
same,"Plant response rating, Kochia",kochia (Kochia scoparia); [20],100
same,"Plant response rating, Kochia",kochia (Kochia scoparia); [22],100
same,"Plant response rating (0 to 100), Kochia",kochia (Kochia scoparia); preemergence,100
same,"Plant response rating, Kochia",kochia (Kochia scoparia); [23],100
same,"Plant response rating (0 to 100), Cocklebur",[14]; preemergence,50
same,"Plant response rating, Cocklebur",[14]; [23],20
same,"Plant response rating, Crabgrass",[15]; [20],100
same,"Plant response rating, Crabgrass",[15]; [22],100
same,"Plant response rating (0 to 100), Crabgrass",[15]; preemergence,100
same,"Plant response rating, Crabgrass",[15]; [23],100
same,"Plant response rating, Goosegrass",[16]; [20],100
same,"Plant response rating, Goosegrass",[16]; [22],100
same,"Plant response rating (0 to 100), Goosegrass",[16]; preemergence,100
same,"Plant response rating, Goosegrass",[16]; [23],100
same,"Plant response rating, Sunflower",Sunflower [17],40
same,"Plant response rating, Soybean",soybean (Glycine max); [20],80
same,"Plant response rating, Soybean",soybean (Glycine max); [22],60
same,"Plant response rating (0 to 100), Soybean",soybean (Glycine max); preemergence,100
same,"Plant response rating, Soybean",soybean (Glycine max); [23],100
same,"Plant response rating, Bermudagrass",[18]; [20],100
same,"Plant response rating, Bermudagrass",[18]; [22],100
same,"Plant response rating (0 to 100 where 0 is no effect and 100 is complete control), Bermudagrass",[18]; preemergence,100
same,"Plant response rating, Bermudagrass",[18]; [23],100
same,"Plant response rating, Velvetleaf",[19]; [20],100
same,"Plant response rating, Velvetleaf",[19]; [22],60
same,"Plant response rating (0 to 100), Velvetleaf",[19]; preemergence,100
same,"Plant response rating, Velvetleaf",[19]; [23],100

# Source: patent publication US7138361B2, “Herbicidal heterocycles” (E. I. du Pont de Nemours and Company, priority 2000, dated 2006)
